Active and inactive are the calls of the source. The rule behind the calls is not given here.
Columns and labels:
HCT-116 [1] = assay: Antiproliferative activity against human HCT-116 cells assessed as inhibition of cell growth incubated for 7 days by MTT assay; assay type: functional, cell-based; settings: HCT-116, 168 h
HCT-116 [2] = assay: Inhibition of Wnt/beta-Catenin signaling in human HCT-116 cells assessed as decrease in total beta-catenin levels at 10 uM by Western blot analysis; assay type: cell-based
HCT-116 [3] = assay: Inhibition of PARP in human HCT-116 cells assessed as decrease in pADPr levels at 10 uM by Western blot analysis; assay type: cell-based
HCT-116 [4] = assay: Inhibition of homologous recombinant repair in human HCT-116 cells assessed as reduction in RAD51 foci formation at 1 uM incubated for 72 hrs by DAPI staining based immunofluorescence analysis; assay type: functional, cell-based
HCT-116 [5] = assay: Induction of DNA damage in human HCT-116 cells assessed as increase in nuclear gammaH2AX foci incubated for 72 hrs by DAPI staining based immunofluorescence analysis; assay type: functional, cell-based; settings: dose 1.0 µM
HCT-116 [6] = assay: Induction of cell cycle arrest in human HCT-116 cells assessed as G2/M phase cells at 5 uM incubated for 3 days by propidium iodide staining based flow cytometry (reference value: 68.35 %); assay type: functional; settings: time 3 day
HCT-116 [7] = assay: Induction of cell cycle arrest in human HCT-116 cells assessed as S phase cells at 1 uM incubated for 3 days by propidium iodide staining based flow cytometry (reference value: 11.26 %); assay type: functional; settings: time 3 day
[8] = molecular target: T1, Protein mono-ADP-ribosyltransferase TIPARP (Homo sapiens, UniProt Q7Z3E1); assay: Inhibition of PARP-7 (unknown origin)
T1 sequence (Q7Z3E1 whole entry): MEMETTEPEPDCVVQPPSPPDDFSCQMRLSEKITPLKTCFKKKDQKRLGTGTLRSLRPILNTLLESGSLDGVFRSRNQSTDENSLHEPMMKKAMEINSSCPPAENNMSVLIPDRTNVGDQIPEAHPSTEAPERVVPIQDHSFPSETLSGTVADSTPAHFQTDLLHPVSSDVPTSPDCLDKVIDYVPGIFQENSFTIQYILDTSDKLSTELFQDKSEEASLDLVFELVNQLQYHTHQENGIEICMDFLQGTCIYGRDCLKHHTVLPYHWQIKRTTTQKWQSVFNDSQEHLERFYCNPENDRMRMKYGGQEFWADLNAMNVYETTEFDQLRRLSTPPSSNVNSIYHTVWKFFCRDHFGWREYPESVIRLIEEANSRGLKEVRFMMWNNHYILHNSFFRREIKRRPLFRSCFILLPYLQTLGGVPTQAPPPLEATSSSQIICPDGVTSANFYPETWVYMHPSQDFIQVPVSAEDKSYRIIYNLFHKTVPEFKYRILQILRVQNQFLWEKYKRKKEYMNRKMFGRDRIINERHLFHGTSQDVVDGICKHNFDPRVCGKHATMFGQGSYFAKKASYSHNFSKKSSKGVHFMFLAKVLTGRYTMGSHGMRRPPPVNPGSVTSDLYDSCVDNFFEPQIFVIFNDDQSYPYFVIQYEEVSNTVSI

[9] = Clearance in Sprague-Dawley rat at 10 mg/kg, po or 1 mg/kg, iv; assay type: ADME, organism-based; settings: in vivo
[10] = Toxicity in […] assessed as rat death administered as single dose at 500 mg/kg, ip; assay type: organism-based; settings: in vivo
[11] = Toxicity in […] assessed as morphological changes in ileum at 500 mg/kg, ip by H&E staining based histopathological analysis; assay type: organism-based; settings: in vivo
HCT-116 [12] = assay: Antitumor activity against human HCT-116 cells xenografted in BALB/c nude mouse assessed as tumor growth inhibition at 25 mg/kg, ip administered once daily for 28 days; assay type: functional; settings: HCT-116, 672 h, time 28 day, read-out: TGI
[13] = molecular target: Poly [ADP-ribose] polymerase 1 (Homo sapiens, UniProt P09874); settings: dose 10.0 nM, time 45.0 min
Poly [ADP-ribose] polymerase 1, sequence (P09874 whole entry): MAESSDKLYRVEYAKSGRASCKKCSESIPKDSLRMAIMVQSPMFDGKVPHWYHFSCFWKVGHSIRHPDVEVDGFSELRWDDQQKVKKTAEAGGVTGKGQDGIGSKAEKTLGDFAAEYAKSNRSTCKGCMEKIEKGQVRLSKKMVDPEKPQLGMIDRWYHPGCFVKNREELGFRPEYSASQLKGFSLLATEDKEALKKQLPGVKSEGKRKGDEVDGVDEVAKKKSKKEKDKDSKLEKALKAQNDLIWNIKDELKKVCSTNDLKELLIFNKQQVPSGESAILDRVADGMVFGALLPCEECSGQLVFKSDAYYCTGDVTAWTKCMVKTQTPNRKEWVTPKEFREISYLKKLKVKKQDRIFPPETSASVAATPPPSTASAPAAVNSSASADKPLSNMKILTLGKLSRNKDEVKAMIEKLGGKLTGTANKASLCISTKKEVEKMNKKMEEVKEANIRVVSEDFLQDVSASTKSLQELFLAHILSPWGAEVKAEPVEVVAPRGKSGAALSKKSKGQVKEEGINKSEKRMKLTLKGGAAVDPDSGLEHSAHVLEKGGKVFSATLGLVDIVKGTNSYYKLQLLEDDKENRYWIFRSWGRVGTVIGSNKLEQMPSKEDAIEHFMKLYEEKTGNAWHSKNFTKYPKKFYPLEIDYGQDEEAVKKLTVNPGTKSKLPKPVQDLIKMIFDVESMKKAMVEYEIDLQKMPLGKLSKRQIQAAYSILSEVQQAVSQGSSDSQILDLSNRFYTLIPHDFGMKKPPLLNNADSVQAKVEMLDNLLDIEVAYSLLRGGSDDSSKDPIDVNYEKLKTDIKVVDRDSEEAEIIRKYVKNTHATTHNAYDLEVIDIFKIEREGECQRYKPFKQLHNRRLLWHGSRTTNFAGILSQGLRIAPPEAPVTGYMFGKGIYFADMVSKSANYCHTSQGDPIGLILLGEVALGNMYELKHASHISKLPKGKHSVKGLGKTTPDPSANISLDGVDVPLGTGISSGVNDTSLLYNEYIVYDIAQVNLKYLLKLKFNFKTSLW

[14] = molecular target: T2, Poly [ADP-ribose] polymerase tankyrase-2 (Homo sapiens) (UniProt Q9H2K2); settings: dose 10.0 nM, time 1.0 hrs
T2 sequence (whole entry): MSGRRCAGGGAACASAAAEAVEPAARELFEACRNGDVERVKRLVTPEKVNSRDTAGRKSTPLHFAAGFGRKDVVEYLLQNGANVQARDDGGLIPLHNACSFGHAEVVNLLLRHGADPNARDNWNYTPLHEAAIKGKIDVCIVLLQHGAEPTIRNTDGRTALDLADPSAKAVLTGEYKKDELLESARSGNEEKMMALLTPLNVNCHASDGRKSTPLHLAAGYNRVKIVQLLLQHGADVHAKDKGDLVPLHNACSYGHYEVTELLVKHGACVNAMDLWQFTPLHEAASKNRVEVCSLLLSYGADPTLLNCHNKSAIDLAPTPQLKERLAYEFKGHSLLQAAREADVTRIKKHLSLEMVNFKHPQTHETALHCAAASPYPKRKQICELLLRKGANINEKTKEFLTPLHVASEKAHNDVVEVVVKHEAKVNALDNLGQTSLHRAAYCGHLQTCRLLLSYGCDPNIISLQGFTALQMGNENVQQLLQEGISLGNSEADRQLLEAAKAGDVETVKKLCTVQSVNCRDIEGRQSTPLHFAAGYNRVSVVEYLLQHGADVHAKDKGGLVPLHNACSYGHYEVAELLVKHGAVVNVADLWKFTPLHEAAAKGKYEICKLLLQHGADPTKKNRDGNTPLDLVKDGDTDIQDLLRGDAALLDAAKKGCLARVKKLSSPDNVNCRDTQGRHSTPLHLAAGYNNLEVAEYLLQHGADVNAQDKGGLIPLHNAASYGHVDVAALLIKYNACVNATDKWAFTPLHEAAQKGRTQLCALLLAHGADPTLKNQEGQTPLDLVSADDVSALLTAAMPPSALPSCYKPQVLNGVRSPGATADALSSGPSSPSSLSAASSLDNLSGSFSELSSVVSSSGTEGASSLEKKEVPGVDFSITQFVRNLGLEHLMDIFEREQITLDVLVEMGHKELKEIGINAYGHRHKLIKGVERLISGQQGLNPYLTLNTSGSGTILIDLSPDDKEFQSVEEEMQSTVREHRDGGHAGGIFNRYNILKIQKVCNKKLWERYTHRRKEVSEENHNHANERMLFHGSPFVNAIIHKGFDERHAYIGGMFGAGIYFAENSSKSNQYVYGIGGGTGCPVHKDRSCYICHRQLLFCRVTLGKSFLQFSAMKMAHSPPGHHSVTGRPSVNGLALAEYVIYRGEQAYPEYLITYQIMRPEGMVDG

With `COc1ccc(NC(=O)c2ccc(NC(=O)N3CCN(C(=O)c4cc(Cc5n[nH]c(=O)c6ccccc56)ccc4F)CC3)cc2)cc1` the IC50 (HCT-116 [1]) was 750 nM, the inhibition (HCT-116 [2]) was “Active” and the inhibition (HCT-116 [3]) was “Active”. The inhibition (HCT-116 [4]) was “Active”, the Activity (HCT-116 [5]) was “Active” and the Activity (HCT-116 [6]) was 54.6%. The Activity (HCT-116 [7]) was 9.31%, the IC50 [8] was 15 nM and the CL [9] was 90.67 mL/min/kg. For the same compound, the Activity [10] was “Non-Toxic”, the Activity [11] was “Non-Toxic” and the inhibition in vivo at 25 mg/kg (HCT-116 [12]) was 31.7%. It also gave an inhibition [13] of 97% and an inhibition [14] of 68.5%.

— ChEMBL document CHEMBL5120857, “Rational design, synthesis and biological evaluation of dual PARP-1/2 and TNKS1/2 inhibitors for cancer therapy” (Eur J Med Chem, 2022)
